Counter-ions that a name gives are not always drawn.
Legend:
[1] = test system: RS4;11 leukaemia tumour line; experiment: In vitro cytotoxicity (Microculture Tetrazolium Assay, 48 hours); assay type: cell-based; conditions: Homo sapiens, RS4;11 cells, 48 hours exposure, MTT, concentration that inhibits cell viability by 50%, read-out: IC50 (nM) MTT RS4
Procedure: The cytotoxicity studies were carried out on the RS4;11 leukaemia tumour line.
The cells are distributed onto microplates and exposed to the test compounds for 48 hours.

Bcl-2 protein = Bcl-2 protein (Homo sapiens (Human), UniProt P10415); experiment: Inhibition of Bcl-2 by the fluorescence polarisation technique; assay type: binding; conditions: fluorescence polarisation test; concentration that inhibits fluorescence polarisation by 50%; read-out: IC50 (nM) Bcl-2 FP
Procedure: The fluorescence polarisation tests were carried out on microplates (384 wells). […] After incubation for 2 hours, the fluorescence polarisation is measured.

Chain of Bcl-2 protein (P10415 whole entry): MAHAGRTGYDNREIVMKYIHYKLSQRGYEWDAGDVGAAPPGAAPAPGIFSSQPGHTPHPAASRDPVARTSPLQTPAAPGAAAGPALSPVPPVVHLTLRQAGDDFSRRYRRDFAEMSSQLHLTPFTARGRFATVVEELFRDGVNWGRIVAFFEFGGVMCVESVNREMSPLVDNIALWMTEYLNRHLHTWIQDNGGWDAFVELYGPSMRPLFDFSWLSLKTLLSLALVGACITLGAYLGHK

Row | SMILES | IC50 [1] | IC50 (Bcl-2 protein)
1 | CC(C)n1ccc2cc(N(C(=O)c3cc(-c4cc5c(cc4C(=O)N4Cc6ccccc6C[C@H]4CN4CCOCC4)OCO5)n4ccccc34)c3ccc(O)cc3)ccc21 [Example 62, N-(4-Hydroxyphenyl)-N-(1-isopropyl-1H-indol-5-yl)-3-{6-[((3S)-3-(4-morpholinylmethyl)-3,4-dihydro-2(1H)-isoquinolinyl)carbonyl]-1,3-benzodioxol-5-yl}-1-indolizine carboxamide hydrochloride] | 19.3 nM | 22 nM
2 | CCN1CCc2cc(N(C(=O)c3cc(-c4cc5c(cc4C(=O)N4Cc6ccccc6C[C@H]4CN4CCOCC4)OCO5)n4ccccc34)c3ccc(O)cc3)ccc21 [Example 63, N-(1-Ethyl-2,3-dihydro-1H-indol-5-yl)-N-(4-hydroxyphenyl)-3-{6-[((3S)-3-(4-morpholinylmethyl)-3,4-dihydro-2(1H)-isoquinolinyl)carbonyl]-1,3-benzodioxol-5-yl}-1-indolizine carboxamide hydrochloride] | 18.8 nM | 21 nM
3 | CC(C)N1CCc2cc(N(C(=O)c3cc(-c4cc5c(cc4C(=O)N4Cc6ccccc6C[C@H]4CN4CCOCC4)OCO5)n4ccccc34)c3ccc(O)cc3)ccc21 [Example 64, N-(4-Hydroxyphenyl)-N-(1-isopropyl-2,3-dihydro-1H-indol-5-yl)-3-{6-[((3S)-3-(4-morpholinylmethyl)-3,4-dihydro-2(1H)-isoquinolinyl)carbonyl]-1,3-benzodioxol-5-yl}-1-indolizine carboxamide hydrochloride] | 23.3 nM | 31 nM
4 | CN1CCN(C[C@@H]2Cc3ccccc3CN2C(=O)c2ccc(Cl)cc2-c2cc(C(=O)N(c3ccc(O)cc3)c3ccc4c(ccn4C)c3)c3ccccn23)CC1 [Example 65, 3-{5-Chloro-2-[((3S)-3-[(4-methyl-1-piperazinyl)methyl]-3,4-dihydro-2(1H)-isoquinolinyl)carbonyl]phenyl}-N-(4-hydroxyphenyl)-N-(1-methyl-1H-indol-5-yl)-1-indolizine carboxamide bis(hydrochloride)] | 9.19 nM | 14 nM
5 | CN1CCCc2cc(N(C(=O)c3cc(-c4cc5c(cc4C(=O)N4Cc6ccccc6C[C@H]4CN4CCOCC4)OCCO5)n4ccccc34)c3ccc(O)cc3)ccc21 [Example 69, N-(4-Hydroxyphenyl)-N-(1-methyl-1,2,3,4-tetrahydro-6-quinolinyl)-3-{7-[((3S)-3-(4-morpholinylmethyl)-3,4-dihydro-2(1H)-isoquinolinyl)carbonyl]-2,3-dihydro-1,4-benzodioxin-6-yl}-1-indolizine carboxamide hydrochloride] | 16.7 nM | 26 nM
6 | Cn1ccc2cc(N(C(=O)c3cc(-c4cc5c(cc4C(=O)N4Cc6ccccc6C[C@H]4CN4CCOCC4)OCCO5)n4ccccc34)c3ccc(O)cc3)ccc21 [Example 70, N-(4-Hydroxyphenyl)-N-(1-methyl-1H-indol-5-yl)-3-{7-[((3S)-3-(4-morpholinylmethyl)-3,4-dihydro-2(1H)-isoquinolinyl)carbonyl]-2,3-dihydro-1,4-benzodioxin-6-yl}-1-indolizine carboxamide hydrochloride] | 14 nM | 19 nM
7 | COc1ccc(C(=O)N2Cc3ccccc3C[C@H]2CN2CCOCC2)c(-c2cc(C(=O)N(c3ccc(O)cc3)c3ccc4c(ccn4C)c3)c3ccccn23)c1 [Example 71, N-(4-Hydroxyphenyl)-3-{5-methoxy-2-[((3S)-3-(4-morpholinylmethyl)-3,4-dihydro-2(1H)-isoquinolinyl)carbonyl]phenyl}-N-(1-methyl-1H-indol-5-yl)-1-indolizine carboxamide hydrochloride] | 24.4 nM | 21 nM
8 | Cn1ccc2cc(N(C(=O)c3cc(-c4cc5c(cc4C(=O)N4Cc6ccccc6C[C@H]4CN4CCOCC4)OCO5)n4c3CNCC4)c3ccc(O)cc3)ccc21 [Example 74, N-(4-Hydroxyphenyl)-N-(1-methyl-1H-indol-5-yl)-6-{6-[((3S)-3-(4-morpholinylmethyl)-3,4-dihydro-2(1H)-isoquinolinyl)carbonyl]-1,3-benzodioxol-5-yl}-1,2,3,4-tetrahydropyrrolo[1,2-a]pyrazine-8-carboxamide bis(hydrochloride)] | 241 nM | 24 nM
9 | CN1CCN(C[C@@H]2Cc3ccccc3CN2C(=O)c2cc3c(cc2-c2cc(C(=O)N(c4ccc(O)cc4)c4ccc5c(ccn5C)c4)c4n2CCC4)OCO3)CC1 [Example 76, N-(4-Hydroxyphenyl)-N-(1-methyl-1H-indol-5-yl)-5-{6-[((3S)-3-[(4-methyl-1-piperazinyl)methyl]-3,4-dihydro-2(1H)-isoquinolinyl)carbonyl]-1,3-benzodioxol-5-yl}-2,3-dihydro-1H-pyrrolizine-7-carboxamide bis(hydrochloride)] | 49 nM | 17 nM
10 | CN1CCN(C[C@@H]2Cc3ccccc3CN2C(=O)c2ccc(Cl)cc2-c2cc(C(=O)N(c3ccc(O)cc3)c3ccc4c(ccn4C)c3)c3n2CCC3)CC1 [Example 77, 5-{5-Chloro-2-[((3S)-3-[(4-methyl-1-piperazinyl)methyl]-3,4-dihydro-2(1H)-isoquinolinyl)carbonyl]phenyl}-N-(4-hydroxyphenyl)-N-(1-methyl-1H-indol-5-yl)-2,3-dihydro-1H-pyrrolizine-7-carboxamide bis(hydrochloride)] | 70.4 nM | 23 nM
11 | O=C(c1cc(-c2cc(Cl)ccc2C(=O)N2Cc3ccccc3C[C@H]2CN2CCOCC2)n2c1COCC2)N(c1ccc(O)cc1)c1ccc2c(c1)CCN2 [Example 79, 6-{5-Chloro-2-[((3S)-3-(4-morpholinylmethyl)-3,4-dihydro-2(1H)-isoquinolinyl)carbonyl]phenyl}-N-(2,3-dihydro-1H-indol-5-yl)-N-(4-hydroxyphenyl)-3,4-dihydro-1H-pyrrolo[2,1-c][1,4]oxazine-8-carboxamide bis(hydrochloride)] | 67.5 nM | 31 nM
12 | Cn1ccc2cc(N(C(=O)c3cc(-c4cc5c(cc4C(=O)N4Cc6ccccc6C[C@H]4CN4CCOCC4)OCO5)n4c3COCC4)c3ccc(O)cc3)ccc21 [Example 80, N-(4-Hydroxyphenyl)-N-(1-methyl-1H-indol-5-yl)-6-{6-[((3S)-3-(4-morpholinylmethyl)-3,4-dihydro-2(1H)-isoquinolinyl)carbonyl]-1,3-benzodioxol-5-yl}-3,4-dihydro-1H-pyrrolo[2,1-c][1,4]oxazine-8-carboxamide] | 18.8 nM | 18 nM
13 | CN1CCc2cc(N(C(=O)c3cc(-c4cc5c(cc4C(=O)N4Cc6ccccc6C[C@H]4CN4CCOCC4)OCO5)n4c3COCC4)c3ccc(O)cc3)ccc21 [Example 81, N-(4-Hydroxyphenyl)-N-(1-methyl-2,3-dihydro-1H-indol-5-yl)-6-{6-[((3S)-3-(4-morpholinylmethyl)-3,4-dihydro-2(1H)-isoquinolinyl)carbonyl]-1,3-benzodioxol-5-yl}-3,4-dihydro-1H-pyrrolo[2,1-c][1,4]oxazine-8-carboxamide hydrochloride] | 39.3 nM | 28 nM
14 | Cc1ccc(N(C(=O)c2cc(-c3cc(Cl)ccc3C(=O)N3Cc4ccccc4C[C@H]3CN3CCOCC3)n3c2COCC3)c2ccc(O)cc2)cc1F [Example 82, 6-{5-Chloro-2-[((3S)-3-(4-morpholinylmethyl)-3,4-dihydro-2(1H)-isoquinolinyl)carbonyl]phenyl}-N-(3-fluoro-4-methylphenyl)-N-(4-hydroxyphenyl)-3,4-dihydro-1H-pyrrolo[2,1-c][1,4]oxazine-8-carboxamide hydrochloride] | 21.9 nM | 33 nM
